Experiment: Pharmacokinetics, RRx-001-GSH in plasma as surrogate for drug exposure
Assay type: in vivo
Method: RRx-001 reacted nonenzymatically and covalently with reduced glutathione (GSH), and with the β93Cys residue of hemoglobin, forming RRx-001-GSH and RRx-001-hemoglobin metabolites, respectively. Given the rapid conversion of the RRx-001 parent molecule to GSH and hemoglobin conjugates, RRx-001-GSH, being the predominant measurable metabolite in the plasma, was chosen as a surrogate for drug exposure. Terminal half-life of RRx-001-GSH was calculated as approximately 30 minutes.

In the case of NC(CCC(=O)NC(CSCC(=O)N1CC([N+](=O)[O-])([N+](=O)[O-])C1)C(=O)NCC(=O)O)C(=O)O (centres unmarked) [RRx-001-GSH], the “area under the plasma concentration-time curve and maximum plasma concentration, dose proportionality” value (doses up to 55 mg/m^2 in phase 1) is reported as “mostly dosed proportional” and the “Terminal half-life of RRx-001-GSH” value (plasma) is reported as “approximately 30 minutes”.
